{"source": "paper PMC12157126", "about": "“Saturation kinetics and specificity of transporters for L-arginine and asymmetric dimethylarginine (ADMA) at the blood-brain and blood-CSF barriers” (PLOS One, 2025)", "key": {"[1]": {"tested_on": "blood-brain and blood-CSF barriers", "test": "In situ brain/choroid plexus perfusion with capillary depletion: CNS uptake of [3H]-arginine in absence and presence of transporter inhibitors", "format": "in vivo, adult male BALB/c mice", "procedure": "(§1) The in situ brain/choroid plexus perfusion method was performed as previously described and will only be briefly detailed here. […] At the end of the perfusion period a CSF sample was taken from the cisterna magna, the animal was decapitated, the brain removed and samples taken under a Leica S4E L2 stereomicroscope (Leica; Buckinghamshire, UK). […] The circumventricular organs (CVOs) including the choroid plexus, pituitary gland and pineal gland were also sampled. Brain samples were also taken for capillary depletion analysis.\n(§2) Both the physiological capillary depletion buffer and dextran solution were maintained at 4 °C to halt any cell metabolism and transport processes, and to reduce any cellular or protein damage due to heat generated from the homogenisation process. The whole brain homogenate was then taken for dextran density centrifugation (5,400 x g) and 4 °C to produce an endothelial cell-enriched pellet and supernatant containing brain parenchyma.\n(§3) The transporter proteins these inhibitors target are listed in S1 Table in S1 File.\n(§4) % change=RTissue−RInhibition /RTissue× 100 (2)"}, "[2]": {"tested_on": "blood-brain and blood-CSF barriers", "test": "In situ brain/choroid plexus perfusion with capillary depletion: CNS uptake of [3H]-ADMA in absence and presence of transporter inhibitors", "conditions": "for RBrain of [3H]-ADMA in presence of inhibitor: 10 min, sucrose corrected; for RBrain of [3H]-ADMA in presence of inhibitor / % inhibition of [3H]-ADMA uptake: L-homoarginine 20 mM", "procedure": "as §1, §2, §3, §4"}, "[3]": {"conditions": "caudate nucleus, BCH 4 mM, α-methyl-D,L-tryptophan 500 μM, L-phenylalanine 200 μM, L-leucine 5 mM, harmaline 2 mM"}, "[4]": {"conditions": "frontal cortex, BCH 4 mM, α-methyl-D,L-tryptophan 500 μM, L-phenylalanine 200 μM, L-leucine 5 mM, harmaline 2 mM"}, "[5]": {"conditions": "hippocampus, BCH 4 mM, α-methyl-D,L-tryptophan 500 μM, L-phenylalanine 200 μM, L-leucine 5 mM, harmaline 2 mM"}, "[6]": {"conditions": "hypothalamus, BCH 4 mM, α-methyl-D,L-tryptophan 500 μM, L-phenylalanine 200 μM, L-leucine 5 mM, harmaline 2 mM"}, "[7]": {"conditions": "occipital cortex, BCH 4 mM, α-methyl-D,L-tryptophan 500 μM, L-phenylalanine 200 μM, L-leucine 5 mM, harmaline 2 mM"}, "[8]": {"conditions": "pineal gland, BCH 4 mM, α-methyl-D,L-tryptophan 500 μM, L-phenylalanine 200 μM, L-leucine 5 mM, harmaline 2 mM"}, "[9]": {"conditions": "thalamus, BCH 4 mM, α-methyl-D,L-tryptophan 500 μM, L-phenylalanine 200 μM, L-leucine 5 mM, harmaline 2 mM"}}}
{"compound": "NC(N)=NCCCC[C@H](N)C(=O)O", "note": "[L-homoarginine, reference compound]", "values": [{"measurement": "inhibition of [3H]-arginine uptake", "setting": "[1]; 20 mM L-homoarginine, all brain regions (up to), 10 min", "result": "up to 99.7%"}, {"measurement": "inhibition of [3H]-arginine distribution", "setting": "[1]; 20 mM L-homoarginine, choroid plexus", "result": 99.8, "unit": "%"}, {"measurement": "reduced uptake of [3H]-arginine", "setting": "[1]; 20 mM L-homoarginine, hypothalamus, did not attain statistical significance", "result": 98.0, "unit": "%"}, {"measurement": "inhibition of [3H]-arginine distribution", "setting": "[1]; 20 mM L-homoarginine, pituitary gland", "result": 97.6, "unit": "%"}, {"measurement": "decrease in [3H]-arginine distribution", "setting": "[1]; L-homoarginine, CSF, failed to attain statistical significance (n=3)", "result": 88.4, "unit": "%"}, {"measurement": "inhibition of [3H]-ADMA uptake", "setting": "[2]; 20 mM L-homoarginine, all brain regions (up to)", "result": "up to 99.2%"}, {"measurement": "RBrain of [3H]-ADMA in presence of inhibitor", "setting": "[2]; CSF, BCH 4 mM, α-methyl-D,L-tryptophan 500 μM, L-phenylalanine 200 μM, L-leucine 5 mM, harmaline 2 mM", "result": "2.45±0.52", "unit": "ml.100g^-1"}, {"measurement": "RBrain of [3H]-ADMA in presence of inhibitor", "setting": "[2]; [3]", "result": "0.18±0.13", "unit": "ml.100g^-1"}, {"measurement": "% inhibition of [3H]-ADMA uptake", "setting": "[2]; [3]", "result": 99.2, "unit": "%"}, {"measurement": "RBrain of [3H]-ADMA in presence of inhibitor", "setting": "[2]; cerebellum, BCH 4 mM, α-methyl-D,L-tryptophan 500 μM, L-phenylalanine 200 μM, L-leucine 5 mM, harmaline 2 mM", "result": "0.37±0.19", "unit": "ml.100g^-1"}, {"measurement": "% inhibition of [3H]-ADMA uptake", "setting": "[2]; cerebellum", "result": 97.9, "unit": "%"}, {"measurement": "RBrain of [3H]-ADMA in presence of inhibitor", "setting": "[2]; choroid plexus, BCH 4 mM, α-methyl-D,L-tryptophan 500 μM, L-phenylalanine 200 μM, L-leucine 5 mM, harmaline 2 mM", "result": "30.73±22.20", "unit": "ml.100g^-1"}, {"measurement": "% inhibition of [3H]-ADMA uptake", "setting": "[2]; choroid plexus, BCH 4 mM, L-phenylalanine 200 μM, L-leucine 5 mM, harmaline 2 mM", "result": 88.2, "unit": "%"}, {"measurement": "RBrain of [3H]-ADMA in presence of inhibitor", "setting": "[2]; [4]", "result": "1.06±1.02", "unit": "ml.100g^-1"}, {"measurement": "% inhibition of [3H]-ADMA uptake", "setting": "[2]; [4]", "result": 95.7, "unit": "%"}, {"measurement": "RBrain of [3H]-ADMA in presence of inhibitor", "setting": "[2]; [5]", "result": "0.20±0.13", "unit": "ml.100g^-1"}, {"measurement": "% inhibition of [3H]-ADMA uptake", "setting": "[2]; [5]", "result": 99.1, "unit": "%"}, {"measurement": "RBrain of [3H]-ADMA in presence of inhibitor", "setting": "[2]; homogenate, BCH 4 mM, α-methyl-D,L-tryptophan 500 μM, L-phenylalanine 200 μM, L-leucine 5 mM, harmaline 2 mM", "result": "3.74±3.52", "unit": "ml.100g^-1"}, {"measurement": "RBrain of [3H]-ADMA in presence of inhibitor", "setting": "[2]; [6]", "result": "1.54±1.12", "unit": "ml.100g^-1"}, {"measurement": "% inhibition of [3H]-ADMA uptake", "setting": "[2]; [6]", "result": 94.9, "unit": "%"}, {"measurement": "RBrain of [3H]-ADMA in presence of inhibitor", "setting": "[2]; [7]", "result": "0.49±0.40", "unit": "ml.100g^-1"}, {"measurement": "% inhibition of [3H]-ADMA uptake", "setting": "[2]; [7]", "result": 97.8, "unit": "%"}, {"measurement": "RBrain of [3H]-ADMA in presence of inhibitor", "setting": "[2]; pellet, BCH 4 mM, α-methyl-D,L-tryptophan 500 μM, L-phenylalanine 200 μM, L-leucine 5 mM, harmaline 2 mM", "result": "2.32±1.65", "unit": "ml.100g^-1"}, {"measurement": "RBrain of [3H]-ADMA in presence of inhibitor", "setting": "[2]; [8]", "result": "12.43±6.87", "unit": "ml.100g^-1"}, {"measurement": "% inhibition of [3H]-ADMA uptake", "setting": "[2]; [8]", "result": 93.6, "unit": "%"}, {"measurement": "RBrain of [3H]-ADMA in presence of inhibitor", "setting": "[2]; pituitary gland, BCH 4 mM, α-methyl-D,L-tryptophan 500 μM, L-phenylalanine 200 μM, L-leucine 5 mM, harmaline 2 mM", "result": "8.57±3.99", "unit": "ml.100g^-1"}, {"measurement": "% inhibition of [3H]-ADMA uptake", "setting": "[2]; pituitary gland, BCH 4 mM, L-phenylalanine 200 μM, L-leucine 5 mM, harmaline 2 mM", "result": 95.3, "unit": "%"}, {"measurement": "RBrain of [3H]-ADMA in presence of inhibitor", "setting": "[2]; pons, BCH 4 mM, α-methyl-D,L-tryptophan 500 μM, L-phenylalanine 200 μM, L-leucine 5 mM, harmaline 2 mM", "result": "2.36±1.06", "unit": "ml.100g^-1"}, {"measurement": "% inhibition of [3H]-ADMA uptake", "setting": "[2]; pons", "result": 90.4, "unit": "%"}, {"measurement": "% inhibition of [3H]-ADMA uptake", "setting": "[2]; supernatant (brain parenchyma)", "result": 65.8, "unit": "%"}, {"measurement": "RBrain of [3H]-ADMA in presence of inhibitor", "setting": "[2]; supernatant, BCH 4 mM, α-methyl-D,L-tryptophan 500 μM, L-phenylalanine 200 μM, L-leucine 5 mM, harmaline 2 mM", "result": "3.43±1.95", "unit": "ml.100g^-1"}, {"measurement": "RBrain of [3H]-ADMA in presence of inhibitor", "setting": "[2]; [9]", "result": "1.81±0.71", "unit": "ml.100g^-1"}, {"measurement": "% inhibition of [3H]-ADMA uptake", "setting": "[2]; [9]", "result": 91.4, "unit": "%"}, {"measurement": "% inhibition of [3H]-ADMA uptake", "setting": "[2]; whole brain homogenate, L-phenylalanine 200 μM, L-leucine 5 mM", "result": 78.9, "unit": "%"}]}
{"compound": "CC(N)(Cc1c[nH]c2ccccc12)C(=O)O", "note": "(racemic) [α-methyl-D,L-tryptophan, reference compound]", "values": [{"measurement": "effect on [3H]-arginine distribution", "setting": "[1]; CSF, choroid plexus and pituitary gland, 4 mM BCH or 500 μM α-methyl-D,L-tryptophan", "result": "no statistically significant effect"}, {"measurement": "effect on [3H]-arginine distribution", "setting": "[1]; homogenate, supernatant, pellet, 4 mM BCH or 500 μM α-methyl-D,L-tryptophan", "result": "no significant effect"}, {"measurement": "effect on [3H]-arginine uptake", "setting": "[1]; majority of brain regions sampled, 4 mM BCH or 500 μM α-methyl-D,L-tryptophan", "result": "did not significantly affect"}, {"measurement": "inhibition of [3H]-ADMA uptake", "setting": "[2]; brain and choroid plexus (up to), system B0,+ inhibitors", "result": "up to 50.0%"}, {"measurement": "effect on [3H]-ADMA uptake", "setting": "[2]; brain homogenate or supernatant", "result": "did not significantly affect"}, {"measurement": "% inhibition of [3H]-ADMA uptake", "setting": "[2]; [3]", "result": 49.1, "unit": "%"}, {"measurement": "% inhibition of [3H]-ADMA uptake", "setting": "[2]; [4]", "result": 48.0, "unit": "%"}, {"measurement": "% inhibition of [3H]-ADMA uptake", "setting": "[2]; [7]", "result": 45.5, "unit": "%"}, {"measurement": "% inhibition of [3H]-ADMA uptake", "setting": "[2]; [8]", "result": 80.6, "unit": "%"}]}
